Measured values taken from patent publication US20150265621A1, “Treating Bronchiectasis With Doxofylline and Erdosteine” (Alitair Pharmaceuticals, Inc., priority 2014, published 2015).
Read-outs that look alike come from different tables or passages of the source.

Assays:
[1] = system: adults with CT scan confirmed bronchiectasis; conditions: nebulized, vs placebo, cited from earlier work
[2] = system: bronchiectasis patients with mucus hypersecretion; conditions: Yipin; erdosteine 300 mg BID + PCT up to 15 days; 40 subjects; cited from earlier work
[3] = system: bronchiectasis patients with mucus hypersecretion; conditions: cited from earlier work
[4] = system: bronchiectasis patients with mucus hypersecretion; conditions: Buquan; erdosteine 300 mg BID + PCT up to 15 days; 30 subjects; cited from earlier work
[5] = system: bronchiectasis patients with mucus hypersecretion; assay: Summary (mean, weighted mean) of the three erdosteine bronchiectasis studies; type: in vivo, human; conditions: erdosteine 300 mg BID + PCT
Protocol: There are three published studies showing effectiveness of erdosteine in the treatment of bronchiectasis: Crisafulli et al (2007), Buquan and Xinke (2011) and Yipin (2012). The three studies have a total of 170 subjects, 85 of whom received standard care consisting of Percussive Chest Therapy (PCT) for up to 15 days. The remaining 85 received PCT plus treatment with erdosteine 300 mg BID for the same length of time. […] FEV1, FVC, PEF, MIP, MEP, PaO2 and PaCO2 measured according to test methods described by Mason et al, 2005. FEV1=forced expiratory volume in one second, measured in liters. FVC=forced vital capacity, total amount air the patient can expel in one breath, measured in liters. PEF=peak expiratory flow, measure in liters per second. MIP=maximum inhalation pressure. MEP=Maximum expiratory pressure. PaO2=partial pressure of oxygen. PaCO2=partial pressure of carbon dioxide. […] Again, the results are similar in terms of order of magnitude and consistent in showing an incremental benefit to adding erdosteine to PCT in bronchiectasis patients. […] The use of erdosteine with PCT produces significant and clinically meaningful changes in the respiratory functioning of patients with bronchiectasis and mucus hypersecretion as compared to PCT alone.

[6] = system: bronchiectasis patients with mucus hypersecretion; conditions: Crisafulli; erdosteine 300 mg BID + PCT up to 15 days; 15 subjects; cited from earlier work
[7] = system: chronic asthma subjects; conditions: randomized clinical study; cited from earlier work
[8] = system: CF patients; conditions: intravenous; cited from earlier work
[9] = system: patients with theophylline overdose; conditions: cited from earlier work
[10] = weighted by % total subjects (18%, 47%, 35%)

NC[C@H]1O[C@H](O[C@H]2[C@H](O)[C@@H](O[C@H]3O[C@H](CO)[C@@H](O)[C@H](N)[C@H]3O)[C@H](N)C[C@@H]2N)[C@H](N)C[C@@H]1O [tobramycin]
effect on FEV1 ([1]; after four weeks of treatment): no effect | eradication of P. aeruginosa ([1]; four weeks of treatment): significant effect

O=C(O)CSCC(=O)NC1CCSC1=O (stereo not shown) [Erdo, erdosteine]
FEV1 change vs baseline [2]: 0.34 L | FVC change vs baseline [2]: 0.43 L | MEP change vs baseline [2]: 11.3 Kpa | MIP change vs baseline [2]: 9.9 kPa | PEF change vs baseline [2]: 0.4 L/s | PaCO2 change vs baseline [2]: 2.6 mm Hg | PaO2 change vs baseline [2]: 6.3 mm Hg | effect of erdosteine with PCT compared to PCT alone on respiratory functioning [3]: significantly enhances the effect of PCT alone | FEV1 change vs baseline [4]: 0.19 L | FVC change vs baseline [4]: 0.31 L | MEP change vs baseline [4]: 8.2 Kpa | MIP change vs baseline [4]: 8.1 kPa | PEF change vs baseline [4]: 0.3 L/s | PaCO2 change vs baseline [4]: 0.3 mm Hg | PaO2 change vs baseline [4]: 5.2 mm Hg | FEV1 change vs baseline, Mean ([5]; mean of the three studies): 0.2 L | FVC change vs baseline, Mean ([5]; mean of the three studies): 0.3 L | MEP change vs baseline, Mean ([5]; mean of the three studies): 9.3 Kpa | MIP change vs baseline, Mean ([5]; mean of the three studies): 9 kPa | PEF change vs baseline, Mean ([5]; mean of the three studies): 0.3 L/s | PaCO2 change vs baseline, Mean ([5]; mean of the three studies): 1.3 mm Hg | PaO2 change vs baseline, Mean ([5]; mean of the three studies): 5.5 mm Hg | FEV1 change vs baseline, Wtd Mean Diff [5, 10]: 0.26 L | FVC change vs baseline, Wtd Mean Diff [5, 10]: 0.36 L | MEP change vs baseline, Wtd Mean Diff [5, 10]: 9.69 Kpa | MIP change vs baseline, Wtd Mean Diff [5, 10]: 9.09 kPa | PEF change vs baseline, Wtd Mean Diff [5, 10]: 0.35 L/s | PaCO2 change vs baseline, Wtd Mean Diff [5, 10]: 1.35 mm Hg | PaO2 change vs baseline, Wtd Mean Diff [5, 10]: 5.70 mm Hg | FEV1 change vs baseline [6]: 0.2 L | FVC change vs baseline [6]: 0.3 L | MEP change vs baseline [6]: 8.4 Kpa | MIP change vs baseline [6]: 8.9 kPa | PEF change vs baseline [6]: 0.3 L/s | PaCO2 change vs baseline [6]: 0.1 mm Hg | PaO2 change vs baseline [6]: 5.1 mm Hg

Cn1c(=O)c2c(ncn2CC2OCCO2)n(C)c1=O [doxofylline]
effectiveness in treating chronic asthma compared to theophylline [7]: as effective as theophylline | subjects dropped out of the study due to side effects [7]: 11%

Cn1c(=O)c2[nH]cnc2n(C)c1=O [theophylline]
subjects dropped out of the study due to side effects [7]: 31% | effect on FEV1 and FEF 0.75 [8]: positive results | patients treated in an emergency setting for overdose who die [9]: Ten
